Test results from US9549935B2, “Methods and compositions for treating migraines using noribogaine” (DemeRx, Inc., priority 2014, dated 2017).
Entries after “also recorded” stand apart in the source; their conditions may differ.

Key:
[1] = Safety and tolerability in healthy volunteers (adverse events, vital signs, ECG); type: in vivo, human
Description: (§1) Pulse oximetry and capnography data were collected continuously using a GE Carescape B650 monitoring system from 2 hours prior to dosing and until six hours after dosing, and thereafter at 12, 24, 48 and 72 hours post-dosing. Additional oximetry data were collected at 120, 168 and 216 hours. Pupillary miosis was assessed by pupillometry. Dark-adapted pupil diameter was measured in triplicate using a Neuroptics PLR-200 pupillometer under standardized light intensity (<5 lux) pre-dose, and at 2, 4, 6, 12, 24, 48, 72, 96, 120, 168 and 216 hours post-dosing.
Safety and tolerability of noribogaine were tested in the group of volunteers from Example 1. Cold pressor testing was conducted in 1° C. water according to the method of Mitchell et al. (J Pain 5:233-237, 2004) pre-dose, 6, 24, 48, 72 and 216 hours post-dosing. Safety evaluations included clinical monitoring, recording of adverse events (AEs), safety laboratory tests, vital signs, ECG telemetry from −2 h to 6 h after dosing, and 12-lead electrocardiograms (ECGs) up to 216 hours post-dosing.

[2] = QT interval evaluation in opioid-dependent patients; type: in vivo, human; conditions: 60, 120, 180 mg, first 24 hours post administration
Description: Patients' QT intervals were evaluated at regular time points throughout the study.

[3] = Treatment emergent adverse events in opioid-dependent participants (Phase IB)
[4] = Pupillary miosis assessed by pupillometry in healthy volunteers; type: in vivo, human; conditions: 3-60 mg single oral doses vs placebo, up to 216 hours, p>0.9
Description: as §1
Summary statistics (means, standard deviations, and coefficients of variation) were determined for each dose group for safety laboratory test data, ECG and pharmacokinetic parameters, and pharmacodynamic variables. Categorical variables were analysed using counts and percentages. Dose-proportionality of AUC and Cmax was assessed using linear regression. The effect of dose on pharmacodynamic parameter values over time was assessed using two-factor analysis of variance (ANOVA). Pairwise comparisons (with Tukey-Kramer adjustment) between each dose group to the placebo were conducted at each time point using the least squares estimates obtained from the ANOVA, using SAS Proc Mixed (SAS ver 6.0).

[5] = Opiate withdrawal scales (COWS, SOWS, OOWS) in opioid-dependent patients; type: in vivo, human; conditions: single 120 mg dose, first six hours following dosing
Description: Patients were evaluated based on the Clinical Opiate Withdrawal Scale (COWS), Subjective Opiate Withdrawal Scale (SOWS), and Objective Opiate Withdrawal Scale (OOWS) scoring systems over the period of time between administration of noribogaine (or placebo) until resumption of OST. These scales are outlined in Guidelines for the Psychosocially Assisted Pharmacological Treatment of Opioid Dependence, World Health Organization, Geneva (2009), Annex 10, which is incorporated herein by reference in its entirety. The scales measure the intensity of withdrawal symptoms, based on clinical, subjective, and objective indicia.

[6] = 3 mg dose group, healthy volunteers
[7] = 10 mg dose group, healthy volunteers
[8] = 30 mg dose group, healthy volunteers

Structure (SMILES): CC[C@H]1CC2C[C@H]3c4[nH]c5ccc(O)cc5c4CCN(C2)C13 [Noribogaine, noribogaine]
- Adverse events, Mild [1, 6]: Dizziness; also recorded: Epistaxis; also recorded: Headache; also recorded: Back pain
- Adverse events, Moderate [1, 6]: Headache
- number of adverse events reported [1, 6]: five adverse events were reported by two subjects
- Adverse events, Mild [1, 7]: Headache
- number of adverse events reported [1, 7]: one adverse event was reported by single subjects
- Adverse events, Mild [1, 8]: Headache
- number of adverse events reported [1, 8]: one adverse event was reported by single subjects
- changes in oximetry, capnography, respiratory rate ([1]; 3-60 mg, healthy volunteers): no changes in oximetry or capnography, or changes in respiratory rate
- changes in vital signs or safety laboratory tests ([1]; 3-60 mg, healthy volunteers): no changes in vital signs or safety laboratory tests of note
- QTcF values >500 msec ([1]; 3-60 mg, healthy volunteers, ECG up to 216 hours): no QTcF values >500 msec at any time
- intensity of adverse events ([1]; all dose groups, healthy volunteers): mild-moderate intensity
- single increase in QTcF ([1]; one subject dosed with 10 mg, 24 hours post-dosing): > 60 ms
- QT interval prolongation (ΔQTcl) [2]: dose-dependent increase in QT interval prolongation
- frequency of headaches ([3]; 60 mg treatment group): frequent
- frequency of headaches ([3]; 120 mg and 180 mg dose groups): attenuated
- hallucinatory effects ([3]; 60-180 mg, opioid-dependent participants): no hallucinatory effects
- Treatment Emergent AE: Catheter Site Infection ([3]; single 60 mg dose, N = 6): 0
- Treatment Emergent AE: Catheter Site Pain ([3]; single 60 mg dose, N = 6): 0
- Treatment Emergent AE: Catheter Site Related Reaction ([3]; single 60 mg dose, N = 6): 0
- Treatment Emergent AE: Cellulitis ([3]; single 60 mg dose, N = 6): 0
- Treatment Emergent AE: Diarrhoea ([3]; single 60 mg dose, N = 6): 0
- Treatment Emergent AE: Dry Mouth ([3]; single 60 mg dose, N = 6): 0
- Treatment Emergent AE: Ear and Labyrinth Disorders ([3]; single 60 mg dose, N = 6): 0
- Treatment Emergent AE: Epistaxis ([3]; single 60 mg dose, N = 6): 0
- Treatment Emergent AE: Euphoric Mood ([3]; single 60 mg dose, N = 6): 0
- Treatment Emergent AE: General Disorders and Administration Site Conditions ([3]; single 60 mg dose, N = 6): 0
- Treatment Emergent AE: Hyperaesthesia ([3]; single 60 mg dose, N = 6): 0
- Treatment Emergent AE: Infections and Infestations ([3]; single 60 mg dose, N = 6): 0
- Treatment Emergent AE: Limb Discomfort ([3]; single 60 mg dose, N = 6): 0
- Treatment Emergent AE: Malaise ([3]; single 60 mg dose, N = 6): 0
- Treatment Emergent AE: Nausea ([3]; single 60 mg dose, N = 6): 0
- Treatment Emergent AE: Oropharyngeal Pain ([3]; single 60 mg dose, N = 6): 0
- Treatment Emergent AE: Pseudoparalysis ([3]; single 60 mg dose, N = 6): 0
- Treatment Emergent AE: Respiratory, Thoracic and Mediastinal Disorders ([3]; single 60 mg dose, N = 6): 0
- Treatment Emergent AE: Rhinorrhoea ([3]; single 60 mg dose, N = 6): 0
- Treatment Emergent AE: Skin Discomfort ([3]; single 60 mg dose, N = 6): 0
- Treatment Emergent AE: Skin Irritation ([3]; single 60 mg dose, N = 6): 0
- Treatment Emergent AE: Skin and Subcutaneous Tissue Disorders ([3]; single 60 mg dose, N = 6): 0
- Treatment Emergent AE: Somnoience ([3]; single 60 mg dose, N = 6): 0
- Treatment Emergent AE: Tinnitus ([3]; single 60 mg dose, N = 6): 0
- Treatment Emergent AE: Tremor ([3]; single 60 mg dose, N = 6): 0
- Treatment Emergent AE: Urinary Tract Infection ([3]; single 60 mg dose, N = 6): 0
- Treatment Emergent AE: Vomiting ([3]; single 60 mg dose, N = 6): 0
- Treatment Emergent AE: Back Pain ([3]; single 120 mg dose, N = 6): 0
- Treatment Emergent AE: Catheter Site Infection ([3]; single 120 mg dose, N = 6): 0
- Treatment Emergent AE: Catheter Site Related Reaction ([3]; single 120 mg dose, N = 6): 0
- Treatment Emergent AE: Depressed Mood ([3]; single 120 mg dose, N = 6): 0
- Treatment Emergent AE: Dry Eye ([3]; single 120 mg dose, N = 6): 0
- Treatment Emergent AE: Dyspepsia ([3]; single 120 mg dose, N = 6): 0
- Treatment Emergent AE: Euphoric Mood ([3]; single 120 mg dose, N = 6): 0
- Treatment Emergent AE: Limb Discomfort ([3]; single 120 mg dose, N = 6): 0
- Treatment Emergent AE: Malaise ([3]; single 120 mg dose, N = 6): 0
- Treatment Emergent AE: Musculoskeletal and Connective Tissue Disorders ([3]; single 120 mg dose, N = 6): 0
- Treatment Emergent AE: Psychiatric Disorders ([3]; single 120 mg dose, N = 6): 0
- Treatment Emergent AE: Somnoience ([3]; single 120 mg dose, N = 6): 0
- Treatment Emergent AE: Urinary Tract Infection ([3]; single 120 mg dose, N = 6): 0
- Treatment Emergent AE: Catheter Site Infection ([3]; single 180 mg dose, N = 6): 0
- Treatment Emergent AE: Catheter Site Pain ([3]; single 180 mg dose, N = 6): 0
- Treatment Emergent AE: Depressed Mood ([3]; single 180 mg dose, N = 6): 0
- Treatment Emergent AE: Diarrhoea ([3]; single 180 mg dose, N = 6): 0
- Treatment Emergent AE: Dry Eye ([3]; single 180 mg dose, N = 6): 0
- Treatment Emergent AE: Dyspepsia ([3]; single 180 mg dose, N = 6): 0
- Treatment Emergent AE: Ear and Labyrinth Disorders ([3]; single 180 mg dose, N = 6): 0
- Treatment Emergent AE: Epistaxis ([3]; single 180 mg dose, N = 6): 0
- Treatment Emergent AE: Euphoric Mood ([3]; single 180 mg dose, N = 6): 0
- Treatment Emergent AE: Hyperaesthesia ([3]; single 180 mg dose, N = 6): 0
- Treatment Emergent AE: Malaise ([3]; single 180 mg dose, N = 6): 0
- Treatment Emergent AE: Oropharyngeal Pain ([3]; single 180 mg dose, N = 6): 0
- Treatment Emergent AE: Pseudoparalysis ([3]; single 180 mg dose, N = 6): 0
- Treatment Emergent AE: Psychiatric Disorders ([3]; single 180 mg dose, N = 6): 0
- Treatment Emergent AE: Respiratory, Thoracic and Mediastinal Disorders ([3]; single 180 mg dose, N = 6): 0
- Treatment Emergent AE: Rhinorrhoea ([3]; single 180 mg dose, N = 6): 0
- Treatment Emergent AE: Skin Discomfort ([3]; single 180 mg dose, N = 6): 0
- Treatment Emergent AE: Skin Irritation ([3]; single 180 mg dose, N = 6): 0
- Treatment Emergent AE: Skin and Subcutaneous Tissue Disorders ([3]; single 180 mg dose, N = 6): 0
- Treatment Emergent AE: Somnoience ([3]; single 180 mg dose, N = 6): 0
- Treatment Emergent AE: Tinnitus ([3]; single 180 mg dose, N = 6): 0
- Treatment Emergent AE: Tremor ([3]; single 180 mg dose, N = 6): 0
- pupillary constriction (dark-adapted pupil diameter) [4]: no evidence of pupillary constriction
- withdrawal symptoms (COWS, OOWS, SOWS scores) [5]: fewer withdrawal symptoms than the other patients
